Results published in patent US7211600B2, “Methods of modulating c-kit tyrosine protein kinase function with indolinone compounds” (Sugen Inc., priority 1999, dated 2007).
Where two headings read alike, the source gives them in different places.

How the values were obtained:
[1] = system: MO7E cells; test: Apoptosis assay: activated caspase-3 by FACS; assay type: cell-based, human
Method: (§1) Samples were assayed at 24 and 48 hours. To measure activated caspase-3, samples were washed with PBS and permeabilized with ice-cold 70% ethanol. The cells were then stained with PE-conjugated polyclonal rabbit anti-active caspase-3 and analyzed by FACS. To measure cleaved PARP, samples were lysed and analyzed by western blotting with an anti-PARP antibody.

[2] = system: MO7E cells; test: Apoptosis assay: cleaved PARP by western blotting; assay type: cell-based, human
Method: as §1

[3] = molecular target: c-kit (Homo sapiens, UniProt P10721); conditions: MO7E cells, 250 ng/ml rh-SCF 15 min, pre-treatment Compound Eight 2 hours, Compound Six 22 hours
Method: (§2) MO7E cells, a human myeloid leukemia cell line, were maintained in RPMI-1640 medium supplemented with 10% fetal calf serum and 10 ng/ml each IL-3 and GM-CSF.
MO7E cells were serum starved overnight in 0.1% serum. […] Cells were stimulated with 250 ng/ml rh-SCF for 15 minutes. Following stimulation, cells were lysed and immunoprecipitated with an anti-c-kit antibody. Phosphotyrosine and protein levels were determined by western blotting.

[4] = system: MO7E cells; test: cells; conditions: Homo sapiens, 48 h, read-out: IC50 value for inhibition of proliferation
Method: as §2

c-kit, sequence (P10721 26-976): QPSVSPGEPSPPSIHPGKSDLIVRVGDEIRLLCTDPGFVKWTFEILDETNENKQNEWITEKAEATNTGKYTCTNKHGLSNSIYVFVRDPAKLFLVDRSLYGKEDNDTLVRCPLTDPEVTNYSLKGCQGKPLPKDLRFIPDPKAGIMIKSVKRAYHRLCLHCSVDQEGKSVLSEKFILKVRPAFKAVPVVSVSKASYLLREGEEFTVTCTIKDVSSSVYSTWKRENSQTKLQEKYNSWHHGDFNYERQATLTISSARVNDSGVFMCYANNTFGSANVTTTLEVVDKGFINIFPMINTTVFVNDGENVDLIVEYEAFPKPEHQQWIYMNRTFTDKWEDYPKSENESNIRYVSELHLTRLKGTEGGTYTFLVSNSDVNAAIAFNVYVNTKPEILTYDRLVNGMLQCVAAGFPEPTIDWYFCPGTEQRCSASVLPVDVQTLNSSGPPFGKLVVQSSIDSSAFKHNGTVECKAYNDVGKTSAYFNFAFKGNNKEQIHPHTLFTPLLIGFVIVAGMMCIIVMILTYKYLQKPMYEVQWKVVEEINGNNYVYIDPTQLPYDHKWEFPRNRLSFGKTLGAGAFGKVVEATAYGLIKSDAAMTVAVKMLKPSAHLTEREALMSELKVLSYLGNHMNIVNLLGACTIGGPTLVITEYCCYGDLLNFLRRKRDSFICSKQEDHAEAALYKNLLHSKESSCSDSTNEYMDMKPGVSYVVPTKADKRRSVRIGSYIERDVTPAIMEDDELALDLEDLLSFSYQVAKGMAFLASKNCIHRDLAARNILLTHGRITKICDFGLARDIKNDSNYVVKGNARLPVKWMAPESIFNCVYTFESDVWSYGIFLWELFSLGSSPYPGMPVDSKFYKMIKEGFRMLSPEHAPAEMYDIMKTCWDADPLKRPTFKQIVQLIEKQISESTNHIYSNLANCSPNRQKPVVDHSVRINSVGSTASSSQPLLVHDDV

Structure (SMILES): Cc1cc(C)c(/C=C2\C(=O)Nc3ccccc32)[nH]1 [Compound Eight]
- effect on number of apoptotic cells (activated caspase-3) ([1]; 5 μM, 24 or 48 hours, +/- SCF stimulation): measurable but smaller number of apoptotic cells
- effect on number of apoptotic cells (activated caspase-3) ([1]; 25 μM, 24 hours, +/- SCF stimulation): measurable but smaller number of apoptotic cells
- increase in the number of apoptotic cells (activated caspase-3) ([1]; 25 μM, 48 hours, SCF stimulation, compared to untreated SCF stimulated cells): approximately 50%
- effect on number of apoptotic cells (activated caspase-3) ([1]; 25 μM, 48 hours, absence of SCF stimulation): slight effect
- increase in cleaved PARP ([2]; 5 μM, both timepoints (24 and 48 hours)): very minimal increase
- increase in the amount of cleaved PARP ([2]; 25 μM, 48 hours): greatest increase
- change of the cleaved PARP effect with SCF stimulation ([2]; 25 μM, 48 hours, with SCF stimulation): augmented slightly

Structure (SMILES): Cc1[nH]c(/C=C2\C(=O)Nc3ccccc32)c(C)c1CCC(=O)O [Compound Six]
- effect on number of apoptotic cells (activated caspase-3) ([1]; 5 μM, 24 hours, with or without SCF stimulation): no effect
- inhibition of c-kit tyrosine phosphorylation ([3]; 0.01 μM): no inhibition
- inhibition of c-kit tyrosine phosphorylation ([3]; 0.1 μM): no inhibition
- inhibition of c-kit tyrosine phosphorylation ([3]; 1 μM): partial inhibition
- inhibition of c-kit tyrosine phosphorylation ([3]; 10 μM): complete inhibition
- IC50 [4]: 5 to 7 µM
